Assay [1] has as its system CPP32. Nature of the assay: Activation of endogenous CPP32 in HeLa cell S-100 (Western blot; cleavage of 35S-labeled PARP and SREBP-2). The settings on record: 1 mM nucleotide. The class given is biochemical, human. The method, then:
FIGS. 1A-1D illustrate dATP-dependent activation of CPP32 and DNA fragmentation in vitro. Aliquots (10 μl) of HeLa cell S-100 (50 μg) were incubated alone (lane 1), in the presence of 1 mM ATP (lane 2), or in the presence of 1 mM dATP (lane 3) at 30° C. for 1 hr in a final volume of 20 μl of buffer A. FIG. 1A, samples were subjected to SDS-PAGE and transferred to a nitrocellulose filter, probed with a monoclonal anti-CPP32 antibody, and the antigen/antibody complex was visualized by the ECL method. The filter was exposed to Kodak X-OMAT AR X-ray film for 1 min. In FIG. 1B, an aliquot of 10 μl of in vitro translated, ^35S-labeled PARP was added to each reaction. After 5 min, the samples were subjected to SDS-PAGE and transferred to a nitrocellulose filter. The filter was exposed to film for 2 hr at room temperature. In FIG. 1C, a 5 μl aliquot of in vitro translated, ^35S-labeled SREBP-2 was added to each reaction. After incubation at 30° C. for 30 min, the samples were subjected to SDS-PAGE, the gel was dried and exposed to film for 2 hr at room temperature. In FIG. 1D, a 50 μlaliquot of HeLa cell S-100 (250 μg) was incubated with 6 μl Hamster Liver nuclei in the absence (lane 1), or presence of 1 mM ATP (lane 2) or dATP (lane 3) for 2 hr at 37° C. in a final volume of 60 μl of buffer A. DNA was isolated as described in the Examples and size-separated by agarose gel electrophoresis (2% agarose), and the DNA was visualized by ethidium bromide staining.
Activation of CPP32 and DNA fragmentation are two well characterized biochemical markers of apoptosis and its initiation. With the goal of producing an in vitro system that duplicates apoptosis, we prepared 100,000×g cytosolic supernatant (S-100) from suspension cultures of HeLa cells. The activation of CPP32 is the result of cleavage of its 32 kDa precursor into the 20 kDa NH2-terminal fragment and 11 kDa COOH-terminal fragment [Nicholson et al. (1995) supra], thus the activation of CPP32 in the HeLa cell S-100 was monitored by Western blot analysis using a monoclonal antibody against the 20 kDa fragment of CPP32 (FIG. 1A). The enzymatic activity of CPP32 was assayed by measuring the cleavage of two ^35S-labeled substrates, PARP (FIG. 1B) and SREBP-2 (FIG. 1C). DNA fragmentation was assayed by incubating the HeLa cell S-100 with nuclei isolated from hamster liver followed by genomic DNA extraction and analysis by agarose gel electrophoresis. […] The sizes of the cleaved products of PARP and SREBP-2 were the same as observed in cells undergoing apoptosis [Kaufmann et al. (1993) Cancer Res. 53, 3976-3985; Wang et al. (1996) supra]. […]

The test system of assay [2] is CPP32. Put plainly: Reconstitution of dATP-dependent activation of CPP32 with S-cytosol (sucrose-prepared HeLa cytosol). The class given is biochemical, human. The settings on record: S-cytosol 50 μg supplemented with 0.2 μg, 1 mM dATP. The method, then: On day 0, Hela cells were set up at 5×10^5 cells per 100 mm dish in medium A as described hereinbelow. On day 2, cells were harvested, collected by centrifugation (1000 g, 10 min, 4° C.). After washed once with ice-cold PBS, the cell pellet was suspended in 5 volumes of ice-cold buffer A containing 250 mM sucrose. The cells were disrupted by douncing 3 times in a 5 ml Wheaton douncer with a pestle polished with sand paper. After microcentrifugation for 5 min at 4° C., the supernatants were further centrifuged at 10^5×g for 30 min in a table top ultracentrifuge (Beckman Instruments, Fullerton, Calif.). The resulting supernatants were designated as S-cytosol. Aliquots of S-cytosol (50 μg) alone (lanes 1 and 2), or supplemented with 0.2 μg Apaf-2 purified through the Mono S column (lanes 3 and 4), were incubated with aliquots of 3 μl in vitro translated, ^35S-labeled CPP32 in the absence (lanes 1, 3) or presence (lanes 2, 4) of 1 mM dATP at 30° C. for 1 hr in a final reaction volume of 20 μl of buffer A. Samples were subjected to SDS-PAGE and transferred to a nitrocellulose filter which were then exposed to film for 16 hr at room temperature.
Human cytochrome c is encoded by a single copy nuclear gene [Evans and Scarpulla (1988) Proc. Natl. Acad. Sci. USA 85, 9625-9629] which is translated on cytoplasmic ribosomes as apocytochrome c. […]

Regarding `Nc1ncnc2c1ncn2[C@H]1C[C@H](O)[C@@H](COP(=O)(O)OP(=O)(O)OP(=O)(O)O)O1` [dATP, deoxyadenosine-5-triphosphate], in assay [1], the “cleavage of 35S-labeled PARP by activated extract” value was “readily cleaved PARP into 85 kDa and 24 kDa fragments”; the “cleavage of 35S-labeled SREBP-2 by activated extract” value was “SREBP-2 into 55 kDa and 70 kDa fragments”. Besides, in assay [1] (30° C., 1 hr, Western blot), the “activation of CPP32 in HeLa cell S-100” value is reported as “most of the CPP32 in the HeLa cell S-100 was activated”.

Turning to “Apaf-2: 15 kDa factor bound to phosphocellulose column, purified from HeLa S-100, identified as human cytochrome c”, in assay [2], the “dATP-dependent activation of CPP32 in S-cytosol” value was “incapable of initiating the dATP-dependent activation of CPP32 (lanes 1 and 2) unless purified cytochrome c was added”.
